{"source": "patent US9333207B2", "about": "“Pharmaceutical composition of 1-adamantylethyloxy-3-morpholino-2-propanol or pharmaceutically acceptable salts thereof for the treatment of cerebrovascular disease and neurodegenerative diseases of the central nervous system” (priority 2012, dated 2016)", "key": {"[1]": {"test": "Cerebral blood flow in the internal carotid artery system under ACVA model by ischemic and hemorrhagic types", "format": "in vivo", "settings": "rats, intravenous, doses of 3, 30, 50 and 100 mg/kg"}, "neurospecific enolase": {"test_system": "neurospecific enolase", "test": "Experimental treatment of rats with ischemic ACVA: neuronal degradation marker activity", "format": "in vivo", "settings": "10 mg/kg once a day for 96 hours of ischemia", "from_the_text": "This evidences about the appropriateness of the use of the pharmaceutical compositions for parenteral use comprising the active substance 1-adamantylethyloxy-3-morpholino-2-propanol or pharmaceutically acceptable salts thereof for treatment and prevention of ischemic brain lesions after thrombolysis, stenting, balloon angioplasty, atheroctomy and removal of aneurysms in the internal carotid and vertebral arteries system."}, "[2]": {"test_system": "NMDA-receptor-ionofor complex of hippocampal pyramidal neurons", "test": "Aspartate-activated currents in individual pyramidal hippocampal neurons", "format": "cell-based, white Wistar WAG\\GSto rats", "settings": "individual pyramidal hippocampal neurons of 15-day aged rats"}, "[3]": {"test": "Experimental treatment of rats with ischemic ACVA: endothelial dysfunction and nitrosating stress", "format": "in vivo", "settings": "20 mg/kg once a day for 96 hours of ischemia", "from_the_text": "This provides the basis of its use for treatment and prevention of ischemic brain lesions after thrombolysis, stenting, balloon angioplasty, atheroctomy and removal of aneurysms in the internal carotid and vertebral arteries system."}}}
{"compound": "OC(COCCC12CC3CC(CC(C3)C1)C2)CN1CCOCC1", "note": "(stereo not drawn) [1-adamantylethyloxy-3-morpholino-2-propanol]", "values": [{"measurement": "cerebral blood flow in the internal carotid artery system", "setting": "[1]", "result": "stimulates the cerebral blood flow"}, {"measurement": "neuronal degradation marker activity (neurospecific enolase)", "setting": "neurospecific enolase", "result": "promoted the reduction"}, {"measurement": "NMDA-receptors blocking/unblocking", "setting": "[2]", "result": "very fast"}, {"measurement": "modulation of aspartate-activated currents (action on NMDA-receptor-ionofor complex)", "setting": "[2]", "result": "exhibits properties of activator NMDA-receptor-ionofor complex"}, {"measurement": "endothelial dysfunction manifestations", "setting": "[3]", "result": "promoted the decrease"}, {"measurement": "nitrosating stress manifestations", "setting": "[3]", "result": "promoted the decrease"}]}
